Assay in all cases: Antibacterial activity test (MIC)
Settings in all cases: Mueller-Hinton Broth, 37° C., 20 to 24 hours

The test system of one assay is MRSA 97-115. The assay is classed as cell-based, methicillin-resistant Staphylococcus aureus. The procedure: (§1) Regarding compounds obtained in respective Working Examples, in order to investigate antibacterial activity, minimal inhibitory concentration (MIC) was determined according to a standard method of Japanese Society of Chemotherapy.
(§2) As a test bacterium, nine kinds of S. aureus 209PJC, MRSA 97-115, MRSA KM 97-53, MRSA KM97-108, VRE 49, E. coli NIHJ JC-2, P. aeruginosa PAO-1, P. aeruginosa No. 12, P. aeruginosa KM97-5 were used and, as a medium, Mueller-Hinton Broth (DIFCO) was used. One platinum loop of a test bacterium was inoculated into 20 ml of a medium, and static culture was carried out at 37° C. for 16 to 20 hours, and then each bacterium species was diluted with a sterilized physiological saline to 10^5/ml, which was used as a test bacterium solution.
(§3) Then, each compound was dissolved in methanol, subjected to ½ stepwise dilution with a medium to prepare a medium for measuring sensitivity, and each 2 ml was dispensed into a test tube. A compound concentration in a medium was adjusted to 100 μg/ml and its 2^n-fold (n=−10 to 1).
(§4) Numerical values in Tables represent MIC expressed in μg/ml unit.

The test system of a further assay is E. coli NIHJ JC-2. In kind it is cell-based. The protocol: as §1, §2, §3, §4
The subject of another assay is P. aeruginosa PAO-1. The assay is classed as cell-based. The protocol: as §1, §2, §3, §4
The test system of a further assay is S. aureus 209PJC. The assay is classed as cell-based. The procedure:
as §1, §2, §3, §4

≈ marks a conversion by molar mass, not a printed value.

Take `CCCCCCCCCCC1N=C(N)NC(Nc2ccc(F)cc2F)=N1` (stereo not drawn) [compound 34]: the “minimal inhibitory concentration (MIC)” value was 1.6 µg/mL (≈ 4.38 µM) in the assay on MRSA 97-115, 50 µg/mL (≈ 137 µM) in the assay on E. coli NIHJ JC-2, 100 µg/mL (≈ 274 µM) in the assay with P. aeruginosa PAO-1 and 1.6 µg/mL (≈ 4.38 µM) in the assay with S. aureus 209PJC.
Turning to `CCCCCCCCCCCNC1=NC(C)(C)N=C(NCc2ccc(O)cc2)N1.Cl` [compound 9], the “minimal inhibitory concentration (MIC)” value is 1.6 µg/mL in the assay with MRSA 97-115, 100 µg/mL with E. coli NIHJ JC-2, more than 100 µg/mL with P. aeruginosa PAO-1 and 0.4 µg/mL in the assay with S. aureus 209PJC.
For `CC(=O)O.CCCCCCCNC1=NC2(CCCC2)N=C(NCc2ccccc2)N1` [compound 54], in that order: 1.6 µg/mL, 50 µg/mL, 100 µg/mL and 0.8 µg/mL.
The corresponding values for `CCCCCCCCCCCC1(C)N=C(N)NC(NCc2ccccc2)=N1.Cl` (racemic) [compound 46] are 0.4 µg/mL, 12.5 µg/mL, 25 µg/mL and 0.4 µg/mL.
With `CCCCCCCCCCNC1=NC(C)(C)N=C(NCc2ccc(OC)cc2)N1.O=C(O)CC(=O)O` [compound 39], the “minimal inhibitory concentration (MIC)” value with MRSA 97-115 was 0.8 µg/mL; in the assay on E. coli NIHJ JC-2 it was 25 µg/mL; with P. aeruginosa PAO-1, 50 µg/mL; in the assay with S. aureus 209PJC, 0.4 µg/mL.
For the molecule `CCCCCCCCNC1=NC(C)(C)N=C(Nc2cccc3ccccc23)N1` [compound 64], the “minimal inhibitory concentration (MIC)” value in the assay with MRSA 97-115 was 0.8 µg/mL (≈ 2.11 µM); with E. coli NIHJ JC-2, 25 µg/mL (≈ 65.9 µM); in the assay with P. aeruginosa PAO-1, 25 µg/mL (≈ 65.9 µM); in the assay on S. aureus 209PJC, 0.8 µg/mL (≈ 2.11 µM).
Turning to `CCCCCCCCNC1=NC(C)(C)N=C(NCc2ccc(Cl)c(Cl)c2)N1.Cl` [12(1)], the “minimal inhibitory concentration (MIC)” value in the assay with MRSA 97-115 is 0.8 µg/mL; with E. coli NIHJ JC-2, 25 µg/mL; in the assay on P. aeruginosa PAO-1 it was 25 µg/mL; in the assay on S. aureus 209PJC, 0.4 µg/mL.
For `CCCCCCCCNC1=NC(C)(C)N(Cc2ccc(Cl)c(Cl)c2)C(N)=N1.Cl` [12(2)], the “minimal inhibitory concentration (MIC)” value with MRSA 97-115 was determined as 1.6 µg/mL; with E. coli NIHJ JC-2 it was 50 µg/mL; with P. aeruginosa PAO-1, 50 µg/mL; with S. aureus 209PJC, 0.8 µg/mL.
As for `CCCCCCCCCNC1=NC(C)(C)N=C(NCc2ccccc2)N1.O=C(O)O` [compound 47], the “minimal inhibitory concentration (MIC)” value stood at 0.8 µg/mL in the assay with MRSA 97-115, 12.5 µg/mL with E. coli NIHJ JC-2, 12.5 µg/mL in the assay with P. aeruginosa PAO-1 and 0.4 µg/mL in the assay with S. aureus 209PJC.
`CCCCCCCCCCNC1=NC(C)(C)N=C(NCc2ccccc2)N1.O=C(O)CC(=O)O` [41(2)]: the “minimal inhibitory concentration (MIC)” value was 0.8 µg/mL in the assay on MRSA 97-115, 6.3 µg/mL in the assay on E. coli NIHJ JC-2, 12.5 µg/mL in the assay with P. aeruginosa PAO-1 and 0.4 µg/mL in the assay on S. aureus 209PJC.
On to `CC(=O)O.CCCCCCCCNC1=NC(C)(C)N=C(NCc2ccccc2)N1` [compound 52], for which the “minimal inhibitory concentration (MIC)” value in the assay on MRSA 97-115 came out at 1.6 µg/mL; with E. coli NIHJ JC-2, 12.5 µg/mL; in the assay with P. aeruginosa PAO-1, 25 µg/mL; in the assay with S. aureus 209PJC, 0.8 µg/mL.
For `CCCCCCCCCCCC1N=C(N)NC(NCc2ccc(C(F)(F)F)cc2)=N1.Cl` (stereo not drawn) [compound 19], in that order: 3.1 µg/mL, 50 µg/mL, 100 µg/mL and 0.4 µg/mL.
